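The compound was tested at five concentrations on cells cultured in 96-well plates, with a 48-hour exposure period. At the TGI there is no net growth.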
Key:
Assay in all cases: DTP human tumour cell line panel, 48 h
HCT-116 colon = system: HCT-116 colon
SK-OV-3 ovarian = system: SK-OV-3 ovarian
LOX IMVI melanoma = system: LOX IMVI melanoma
OVCAR-5 ovarian = system: OVCAR-5 ovarian
OVCAR-4 ovarian = system: OVCAR-4 ovarian
SNB-19 CNS = system: SNB-19 CNS
HL-60(TB) leukemia = system: HL-60(TB) leukemia
NCI-H226 lung = system: NCI-H226 lung
SR leukemia = system: SR leukemia
HOP-92 NSCLC = system: HOP-92 NSCLC
KM12 colon = system: KM12 colon
TK-10 renal = system: TK-10 renal
U251 CNS = system: U251 CNS
BT-549 breast = system: BT-549 breast
SNB-75 CNS = system: SNB-75 CNS
SK-MEL-2 melanoma = system: SK-MEL-2 melanoma
UO-31 renal = system: UO-31 renal
UACC-257 melanoma = system: UACC-257 melanoma
OVCAR-8 ovarian = system: OVCAR-8 ovarian
DU-145 prostate = system: DU-145 prostate
HT29 colon = system: HT29 colon
RPMI-8226 leukemia = system: RPMI-8226 leukemia
CAKI-1 renal = system: CAKI-1 renal
COLO 205 colon = system: COLO 205 colon
K-562 leukemia = system: K-562 leukemia
SF-295 CNS = system: SF-295 CNS
MCF7 breast = system: MCF7 breast
MDA-MB-231 breast = system: MDA-MB-231 breast
T-47D breast = system: T-47D breast
ACHN renal = system: ACHN renal
EKVX NSCLC = system: EKVX NSCLC
SN12C renal = system: SN12C renal
PC-3 prostate = system: PC-3 prostate
A498 renal = system: A498 renal
HOP-62 NSCLC = system: HOP-62 NSCLC
SK-MEL-28 melanoma = system: SK-MEL-28 melanoma
SW-620 colon = system: SW-620 colon
SK-MEL-5 melanoma = system: SK-MEL-5 melanoma
MOLT-4 leukemia = system: MOLT-4 leukemia
A549 NSCLC = system: A549 NSCLC
786-0 renal = system: 786-0 renal
IGROV1 ovarian = system: IGROV1 ovarian
RXF 393 renal = system: RXF 393 renal
CCRF-CEM leukemia = system: CCRF-CEM leukemia
NCI-H23 lung = system: NCI-H23 lung
HCT-15 colon = system: HCT-15 colon
M14 melanoma = system: M14 melanoma
HCC-2998 colon = system: HCC-2998 colon
NCI-H460 lung = system: NCI-H460 lung
NCI/ADR-RES ovarian = system: NCI/ADR-RES ovarian
MDA-MB-435 = system: MDA-MB-435
SF-268 CNS = system: SF-268 CNS
HS 578T breast = system: HS 578T breast
SF-539 CNS = system: SF-539 CNS
UACC-62 melanoma = system: UACC-62 melanoma

## COc1cccc(C(C#N)NNC(=O)c2c(Cl)c(Cl)c(Cl)c(Cl)c2-c2nc3ccc(C(=O)c4ccccc4)cc3[nH]2)c1O (centres undefined)
HCT-116 colon
  TGI: > 100 µM
SK-OV-3 ovarian
  TGI: > 100 µM
LOX IMVI melanoma
  TGI: > 100 µM
OVCAR-5 ovarian
  TGI: 70.1 µM
OVCAR-4 ovarian
  TGI: > 100 µM
SNB-19 CNS
  TGI: 24.7 µM
HL-60(TB) leukemia
  TGI: > 100 µM
NCI-H226 lung
  TGI: 8.43 µM
SR leukemia
  TGI: > 100 µM
HOP-92 NSCLC
  TGI: > 100 µM
KM12 colon
  TGI: > 100 µM
TK-10 renal
  TGI: > 100 µM
U251 CNS
  TGI: > 100 µM
BT-549 breast
  TGI: > 100 µM
SNB-75 CNS
  TGI: 7.46 µM
SK-MEL-2 melanoma
  TGI: 29.4 µM
UO-31 renal
  TGI: > 100 µM
UACC-257 melanoma
  TGI: > 100 µM
OVCAR-8 ovarian
  TGI: > 100 µM
DU-145 prostate
  TGI: > 100 µM
HT29 colon
  TGI: > 100 µM
RPMI-8226 leukemia
  TGI: > 100 µM
CAKI-1 renal
  TGI: > 100 µM
COLO 205 colon
  TGI: > 100 µM
K-562 leukemia
  TGI: > 100 µM
SF-295 CNS
  TGI: 4.69 µM
MCF7 breast
  TGI: > 100 µM
MDA-MB-231 breast
  TGI: > 100 µM
T-47D breast
  TGI: > 100 µM
ACHN renal
  TGI: > 100 µM
EKVX NSCLC
  TGI: > 100 µM
SN12C renal
  TGI: 7.79 µM
PC-3 prostate
  TGI: > 100 µM
A498 renal
  TGI: 7.29 µM
HOP-62 NSCLC
  TGI: 8.59 µM
SK-MEL-28 melanoma
  TGI: > 100 µM
SW-620 colon
  TGI: > 100 µM
SK-MEL-5 melanoma
  TGI: 10.5 µM
MOLT-4 leukemia
  TGI: > 100 µM
A549 NSCLC
  TGI: > 100 µM
786-0 renal
  TGI: > 100 µM
IGROV1 ovarian
  TGI: > 100 µM
RXF 393 renal
  TGI: 9.03 µM
CCRF-CEM leukemia
  TGI: > 100 µM
NCI-H23 lung
  TGI: > 100 µM
HCT-15 colon
  TGI: > 100 µM
M14 melanoma
  TGI: 25.1 µM

## O=C1CC(c2cccc(Cl)c2)Oc2ccccc21 (centres undefined)
HCT-116 colon
  TGI: 31.3 µM
SK-OV-3 ovarian
  TGI: 46 µM
LOX IMVI melanoma
  TGI: 56.5 µM
HCC-2998 colon
  TGI: 35.7 µM
OVCAR-4 ovarian
  TGI: 94.1 µM
SNB-19 CNS
  TGI: 30.8 µM
HL-60(TB) leukemia
  TGI: 57.1 µM
NCI-H226 lung
  TGI: 41.3 µM
NCI-H460 lung
  TGI: 42.1 µM
HOP-92 NSCLC
  TGI: 42.2 µM
KM12 colon
  TGI: 39.5 µM
U251 CNS
  TGI: > 100 µM
SNB-75 CNS
  TGI: 66.6 µM
SK-MEL-2 melanoma
  TGI: 35.6 µM
NCI/ADR-RES ovarian
  TGI: 48.9 µM
UO-31 renal
  TGI: 27.6 µM
UACC-257 melanoma
  TGI: 32.2 µM
MDA-MB-435
  TGI: 38.1 µM
OVCAR-8 ovarian
  TGI: 53.8 µM
SF-268 CNS
  TGI: 50.6 µM
HS 578T breast
  TGI: 61.8 µM
DU-145 prostate
  TGI: 38.2 µM
HT29 colon
  TGI: 33.3 µM
RPMI-8226 leukemia
  TGI: 9.83 µM
CAKI-1 renal
  TGI: 23.3 µM
COLO 205 colon
  TGI: 69.3 µM
K-562 leukemia
  TGI: 6.4 µM
SF-295 CNS
  TGI: 53.6 µM
MCF7 breast
  TGI: 39.4 µM
MDA-MB-231 breast
  TGI: > 100 µM
T-47D breast
  TGI: 91.7 µM
ACHN renal
  TGI: 31.7 µM
EKVX NSCLC
  TGI: 43.7 µM
PC-3 prostate
  TGI: 30.4 µM
A498 renal
  TGI: 46.3 µM
SF-539 CNS
  TGI: 36.3 µM
HOP-62 NSCLC
  TGI: 32.6 µM
SK-MEL-28 melanoma
  TGI: 42.2 µM
SW-620 colon
  TGI: 72.1 µM
SK-MEL-5 melanoma
  TGI: 37.6 µM
786-0 renal
  TGI: 39.5 µM
IGROV1 ovarian
  TGI: 50.7 µM
UACC-62 melanoma
  TGI: 29.8 µM
CCRF-CEM leukemia
  TGI: 48.4 µM
NCI-H23 lung
  TGI: 24.3 µM
HCT-15 colon
  TGI: 49 µM
M14 melanoma
  TGI: 36 µM
